For 15 compounds, Ki, fluorescence enhancement factor and degradation in solution results are on record in article PMC4516916, “Development of Plate Reader and On-Line Microfluidic Screening to Identify Ligands of the 5-Hydroxytryptamine Binding Protein in Venoms” (Toxins, 2015).

Counter-ions that a name gives are not always drawn.

Series [1] has as its target T1, A1B2D1R 5HTBP mutant (Aplysia californica, UniProt Q8WSF8). The experiment in a line: Fluorescence enhancement microplate reader assay (DAHBA tracer). Type of series: binding. How it is done: Next, specific and non-specific binding was determined by measuring a tracer saturation curve with and without a displacing ligand. In this experiment, the binding protein concentration was 50 nM while 100 µM granisetron was used as displacing ligand for measurement of the non-specific binding curve. […] The non-specific binding, the total binding curve and the resulting specific binding curve is shown (Figure 2C).
Fourteen 5-HT3R ligands, also binding to the 5HTBP [10], were selected for this experiment. The measured Ki values for both the fluorescence enhancement plate reader assay as well as those measured with the radioligand binding assay are listed (Supplementary Information Table S1).
The buffer used for development of the 5HTBP fluorescence enhancement assay consisted of 1 mM KH2PO4, 3 mM Na2HPO4, […], 20 mM trizma base/HCl at pH 7.5 with addition of 400 μg/mL ELISA BR [21]. The fluorescence enhancement was measured with a Victor3 Microplate reader from Perkin-Elmer. The excitation and emission wavelengths were set to 485 and 520 nm, respectively. Black-bottomed 96-well microplates were purchased from Greiner Bio-One (Alphen aan den Rijn, The Netherlands). The final assay volume was 100 µL per well. The 5HTBP was first mixed with the ligands, and then with the tracer ligand. The assay mixture was incubated for 5 min before the measurement. The pharmacological validation was performed by measurement of IC50 curves of twelve 5-HT3R ligands and comparing the results obtained with the results obtained from a radioligand binding assay (see below). The z’ factors for the determination of assay quality were calculated according to Zhang.

Series [2] has as its target T1, A1B2D1R 5HTBP mutant. The experiment in a line: Radioligand binding assay with [3H]-granisetron (SPA). How it is done:
The competitive radioligand-binding assay was performed as described by Kesters et al. 2013 [10]. His-tagged A1B2D1R 5HTBP was diluted in buffer (10 mM HEPES/0.05% Tween) to obtain 50 ng binding protein per well. […] The concentration of the radioligand [3H]-granisetron (Perkin-Elmer, Life Science, Groningen, The Netherlands, specific activity ~85 Ci/mmol) was 1.99 nM. After addition of PVT Copper His-Tag SPA beads (final concentration 2 mg/mL), the final well volume was 100 µL. The plates (white Optiplates, Perkin-Elmer Life Science, Groningen, The Netherlands) were incubated at room temperature under continuous shaking while protected from light for 1.5 h. The SPA beads were then allowed to settle for 3 h in the absence of light before counting in a Wallac 1450 MicroBeta (Perkin-Elmer Life Science, Groningen, The Netherlands). All radioligand binding data were fit by a non-linear, least squares curve analysis procedure using Graphpad Prism (version 5, GraphPad Software).

Another series has as its system A1B2D1R 5HTBP. The experiment in a line: Fluorescence enhancement of anabaseine derivatives with 5HTBP (cuvette fluorometer). The following applies: fluorescence in presence of 5HTBP divided by fluorescence in absence of 5HTBP; A1B2D1R variant; excitation 488 nm. It is filed as binding, Aplysia californica. How it is done: (§1) We first evaluated three potentially suitable tracer ligands. […] Fluorescence enhancement factors are defined as fluorescence in presence of 5HTBP divided by fluorescence in absence of 5HTBP. […] DAHBA was therefore selected as the most suitable tracer ligand.
(§2) The fluorescence enhancement properties of three anabaseine derivatives (Supplementary Information Figure S3) bound to the orthosteric binding pocket of two different 5HTBP variants were measured using 1 cm wide glass cuvettes in a Perkin-Elmer LS50B fluorometer (Groningen, The Netherlands). The excitation spectra, λmax (nm), and ε (L·mol^−^1·cm^−^1) values of the anabaseine derivatives are described by Kool et al.. The emission spectra from 500–595 nm were recorded with 0.5 nm intervals with a fixed 488 nm excitation.

The subject of a further series is A1B2D1W 5HTBP. The series is described as above. It is filed as binding, Aplysia californica. As to conditions: fluorescence in presence of 5HTBP divided by fluorescence in absence of 5HTBP; A1B2D1W variant; excitation 488 nm. How it is done: as §1, §2
Series [3] can be described thus: Stability of tracer ligand in solution (MS analysis). Type of series: physicochemical. The following applies: deduced by MS analysis.
Source text: as §1

Where [4] appears, read: read-out: Ki fluorescence enhancement (A1B2D1R 5HTBP mutant), plate reader assay.
[5] abbreviates: read-out: Ki RLB (A1B2D1R 5HTBP mutant); [3H]-granisetron 1.99 nM.
Setting [6] is: plate reader assay, read-out: Ki fluorescence enhancement (A1B2D1R 5HTBP mutant).
Setting [7] is: [3H]-granisetron 1.99 nM; read-out: Ki RLB (A1B2D1R 5HTBP mutant).

T1 sequence (Q8WSF8 entry or part of it, change not shown): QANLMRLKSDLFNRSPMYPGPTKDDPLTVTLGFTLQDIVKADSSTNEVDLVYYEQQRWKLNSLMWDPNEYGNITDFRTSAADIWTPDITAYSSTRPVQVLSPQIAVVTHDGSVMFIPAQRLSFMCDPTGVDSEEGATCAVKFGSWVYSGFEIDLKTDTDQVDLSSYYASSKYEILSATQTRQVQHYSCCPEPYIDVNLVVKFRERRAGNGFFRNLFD

Consider `NCCc1c[nH]c2ccc(F)cc12` [5-fluorotryptamine HCL], for which the inhibition constant Ki stood at 110 ± 14 µM on A1B2D1R 5HTBP mutant [1] (setting [4]) and 101 ± 50.2 µM at A1B2D1R 5HTBP mutant [2] (setting [5]).

Take `C=CCN1CCc2nc(N)sc2CC1` [B-HT920]: the inhibition constant Ki at A1B2D1R 5HTBP mutant [1] (setting [6]) turned out to be 3.85 ± 0.76 µM; at A1B2D1R 5HTBP mutant [2] (setting [7]) it was 0.93 ± 0.24 µM.

Consider `CCN(CC)c1ccc(/C=C2\CCCN=C2c2cccnc2)c(O)c1` [DAHBA, (E)-3-(3-(4-diethylamino-2-hydroxybenzylidene)-3,4,5,6-tetrahydropyridin-2-yl)pyridine], for which the fluorescence enhancement factor in the series on A1B2D1R 5HTBP was determined as 4.7.

With `Cn1cc(C(=O)C(=O)NC2CN3CCC2CC3)c2ccccc21` (stereo not drawn) [RS56812], the Ki at A1B2D1R 5HTBP mutant [1] (setting [6]) came to 3.57 ± 0.91 µM; at A1B2D1R 5HTBP mutant [2] (setting [7]) it was 1.6 ± 0.34 µM.

On to `NC1CCN(c2cccc(Cl)n2)CC1` [SR57227], for which the inhibitory constant (Ki) at A1B2D1R 5HTBP mutant [1] (setting [6]) worked out at 85 ± 7.62 µM; at A1B2D1R 5HTBP mutant [2] (setting [7]), 39.7 ± 15 µM.

Consider `CN1CCN(c2nc3ccccc3nc2Cl)CC1` [VUF10166], for which the Ki was found to be 11.5 ± 3.58 µM on A1B2D1R 5HTBP mutant [1] (setting [6]) and 2.39 ± 0.58 µM on A1B2D1R 5HTBP mutant [2] (setting [7]).

In the case of `CN(C)c1ccc(/C=C2\CCCN=C2c2cccnc2)cc1` [VUF10907, (E)-3-(3-(4-Dimethylaminobenzylidene)-3,4,5,6-tetrahydropyridin-2-yl)pyridine], the fluorescence enhancement factor amounted to 3.8 with A1B2D1R 5HTBP and 2.5 with A1B2D1W 5HTBP.

On to `CN1CCc2cc(/C=C3\CCCN=C3c3cccnc3)ccc21` [VUF11234, (E)-1-methyl-5-((2-(pyridin-3-yl)-5,6-dihydropyridin-3(4H)-ylidene)methyl)indoline], for which the degradation in solution result in series [3] is given as “notable degradation in solution”. In addition, the fluorescence enhancement factor with A1B2D1R 5HTBP is 6.5; in the series on A1B2D1W 5HTBP it was 3.7.

In the case of `CN1C2CCCC1CC(NC(=O)c1nn(C)c3ccccc13)C2` (stereo not drawn) [granisetron, Granisetron], the inhibition constant Ki stood at 0.24 ± 0.14 µM at A1B2D1R 5HTBP mutant [1] (setting [4]) and 0.05 ± 0.01 µM on A1B2D1R 5HTBP mutant [2] (setting [5]).

For the compound `CN1CCN2c3ncccc3Cc3ccccc3C2C1` (stereo not drawn) [mirtazapine], the values for the inhibition constant (Ki) at A1B2D1R 5HTBP mutant [1] (setting [4]) and at A1B2D1R 5HTBP mutant [2] (setting [5]) were 12.8 ± 3.99 µM and 9.29 ± 1.87 µM, respectively.

For the compound `O=C1c2cccc3c2[C@H](CCC3)CN1[C@@H]1CN2CCC1CC2` [palonosetron], the results for the inhibition constant (Ki) at A1B2D1R 5HTBP mutant [1] (setting [4]) and on A1B2D1R 5HTBP mutant [2] (setting [5]) were 2.2 ± 0.63 µM and 0.51 ± 0.11 µM, respectively.

Turning to `c1ccc2nc(N3CCNCC3)ccc2c1` [quipazine], the figures for the Ki at A1B2D1R 5HTBP mutant [1] (setting [4]) and at A1B2D1R 5HTBP mutant [2] (setting [5]) were 73 ± 32.2 µM and 53.8 ± 13.7 µM, respectively.

Turning to `CN1[C@@H]2CC[C@H]1C[C@@H](OC(=O)c1c[nH]c3ccccc13)C2` [tropisetron], the inhibitory constant (Ki) is 0.04 µM at A1B2D1R 5HTBP mutant [1] (setting [4]) and 0.01 µM at A1B2D1R 5HTBP mutant [2] (setting [5]).

As for `COc1cc(N)c(Cl)cc1C(=O)NC1CN2CCC1CC2` (stereo not drawn) [zacopride], the inhibitory constant (Ki) at A1B2D1R 5HTBP mutant [1] (setting [4]) amounted to 4.05 ± 1.14 µM; on A1B2D1R 5HTBP mutant [2] (setting [5]) it was 1.62 ± 0.57 µM.

With RS 16566, the Ki amounted to 3 ± 0.02 µM on A1B2D1R 5HTBP mutant [1] (setting [6]) and 0.38 ± 0.09 µM at A1B2D1R 5HTBP mutant [2] (setting [7]).
